Assay results: patent US12343396B2, “Ultrasound mediated delivery of drugs” (EXACT THERAPEUTICS AS, priority 2013, dated 2025)
Values after ≈ are worked out from the molar mass of the structure shown. Read-outs that look alike come from different tables or passages of the source.

Legend:
[1] = Microscopy scoring of spontaneously and US activated bubbles; format: physicochemical; parameters: key: Score 0 = no or very limited; Score 1 = medium and; Score 2 = high; settings: oil as C2 microdroplet phase mixed with C1, 37° C.; for Spont. Act. (amount of spontaneously activated bubbles): bubbles >~15 μm; for US Act. (amount of US activated bubbles): insonated 5 s, nominal MI 0.8, 2.25 MHz
Method: 641 mg distearoylphosphateidylcholine (DSPC) and 73 mg 1,2-distearoyl-3-(trimethylammonio) propane chloride (DSTAP) were weighed into a 250 mL round bottom flask and 50 ml chloroform was added. The sample was heated under hot tap water until a clear solution was obtained. The chloroform was removed by evaporation to dryness on a rotary evaporator at 350 mm Hg and 40° C., followed by further drying at 50 mm Hg in desiccator over night. Thereafter, 143 mL water was added and the flask again placed on a rotary evaporator and the lipids were rehydrated by full rotational speed and 80° C. water bath temperature for 25 minutes. The samples were placed in refrigerator over night. The lipid dispersion was transferred to a suitable vial and stored in refrigerator until use.
Emulsions were prepared by transferring aliquots of 1 mL of the cold lipid dispersion to 2 mL chromatography vials. To each of seven vials was added 100 μL of the fluorocarbon oils as detailed in Table 11. The chromatography vials were shaken on a CapMix (Espe, GmbH) for 75 seconds. The vials were immediately cooled in ice, pooled and kept cold until use. Coulter counter analysis was performed to determine the volume concentration of the microdroplets and the emulsions were then diluted with water to 10 μl/mL disperse phase.
C1 (as detailed in E1-2) was reconstituted in 2 mL of water and mixed together with the C2 samples prepared in a 10 ml tube to a ratio of 10:1 and shaken carefully by hand. The mixture was then diluted with 7 mL water. The samples were evaluated for spontaneously activated and US activated bubbles by microscopy in manual version of the methodology described in E1-4. One mL of this solution was transferred to a microscope cell where the temperature was stabilised to 37° C. after 2 minutes. The cell was set up so that US sonication, using an ATL 3-2 transducer with a center frequency of 2.25 MHZ, could be applied to the sample. At 200× magnification the entire cell area was scanned and the content of large (>˜15 μm), spontaneously activated bubbles was semi quantitatively assessed by visual inspection. For each sample, a score in the range of 0 to 2 was given, where 0 designate “no or very few large phase shift bubbles observed”, 1 designate “medium number of large phase shift bubbles observed” and 2 designate “large number of large phase shift bubbles observed”. The sample was then insonated for 5 s at a nominal MI of 0.8 and the content of large, US activated bubbles were counted and scored in the same manner. The results from this study is detailed in Table 11 together with the physicochemical characteristics of the compounds investigated.

[2] = cited from earlier work; for vapour pressure (v.p.): at 20° C.; for Log wsol (water solubility): logarithm of Molar solubility
physchem = settings: for solubility: organic solvent or mixture; for Miscibility in tCIMe: solvents
Method: As a starting-point for the study on drug loading, a theoretical evaluation of solubility of different solutes (drugs and chromophores for optical imaging) in pFMCP and a range of other oil components was performed. This evaluation was performed using a state-of-the-art software for assessment of solvent-solute compatibility; Hansen solubility parameters, HSPiP v.4 (Steven Abbott TCNF Ltd.). The HSPIP analysis calculates three basic properties relating to compatibility between substances; Polarity, Dispersion and Hydrogen binding and a distance in this three dimensional space between e.g. a solvent and a solute; the Hansen distance (Hd). The closer the solvent and solute are in this space, the (relatively) better the solubility of the solute in the solvent. […] The miscibility between the solvent and the solubility of the solutes in one of the solvents were experimentally determined.
In addition, a 1:1:2 mixture of said three solvents loaded with Ptx was explored. […] C2 with a 1:1:1 mixture of these components was manufactured as detailed below.

Compound | Spont. Act. (amount of spontaneously activated bubbles) [1] | US Act. (amount of US activated bubbles) [1] | vapour pressure (v.p.) [2] | Log wsol (water solubility) [2] | also measured
1,1,2,3,3,3-Hexafluoropropyl methyl | 2 | 0 | 418.8 torr | −2.5 | 
2,2,3,3,3-Pentafluoropropyl methyl | 1 | 0 | 559.6 torr | −2.0 | 
C=CC(F)(F)C(F)(F)C(F)(F)C(F)(F)F [1H, 1H,2H-perfluoro-1-hexene] | 1 | 1 | 353.1 torr | −4.6 | 
FC(F)C(F)(F)C(F)(F)C(F)(F)C(F)(F)C(F)(F)F [1H-perfluorohexane] | 1 | 1 | 238.6 torr | −5.3 | 
FC(C(F)C(F)(F)C(F)(F)F)C(F)(F)F (stereo not shown) [2H,3H-perfluoropentane] | 1 | 0 | 431.8 torr | −3.2 | 
CN(C)C/C=C/C(=O)Nc1cc2c(Nc3ccc(F)c(Cl)c3)ncnc2cc1O[C@H]1CCOC1 [Afatinib] |  |  |  |  | solubility (physchem; Solubility in tCIMe): ~100 mg/mL (≈ 206 mM)
CCCCCCCCCCCCCCCCCCN1C(=CC=CC=CC=CC2=[N+](CCCCCCCCCCCCCCCCCC)c3ccccc3C2(C)C)C(C)(C)c2ccccc21.[I-] [DiR] |  |  |  |  | solubility in solvent mixture (physchem; 1:1:1 mixture of pFMCP, ClrFPr and pFMCP): > 10 mg/mL; Solubility in tCIMe (physchem; target molecules): ~50 mg/mL
CC(=O)O[C@@]12CO[C@@H]1C[C@H](O)[C@@]1(C)C(=O)[C@H](O)C3=C(C)[C@@H](OC(=O)[C@H](O)[C@@H](NC(=O)OC(C)(C)C)c4ccccc4)C[C@@](O)([C@@H](OC(=O)c4ccccc4)[C@H]21)C3(C)C [Docetaxel] |  |  |  |  | solubility (physchem; Solubility in tCIMe): ~20 mg/mL (≈ 24.8 mM)
COc1cccc2c1C(=O)c1c(O)c3c(c(O)c1C2=O)C[C@@](O)(C(=O)CO)C[C@@H]3O[C@H]1C[C@H](N)[C@H](O)[C@H](C)O1 [Doxorubicin] |  |  |  |  | solubility (physchem; trichloromethane (tClMe), Solubility in tCIMe, target molecules): ~1 mg/mL (≈ 1.84 mM)
CCS(=O)(=O)Nc1ccc2c(c1)/C(=C(/Nc1ccc(CN3CCCCC3)cc1)c1ccccc1)C(=O)N2 [Hesperadin] |  |  |  |  | solubility (physchem; Solubility in tCIMe): ~7.5 mg/mL (≈ 14.5 mM)
CCN(CC)c1ccc2nc3c4ccccc4c(=O)cc-3oc2c1 [Nile Red] |  |  |  |  | solubility (physchem; Solubility in tCIMe): ~50 mg/mL (≈ 157 mM); solubility (physchem; solubility in solvent mixture): > 5 mg/mL
CC(=O)O[C@H]1C(=O)[C@@]2(C)[C@H]([C@H](OC(=O)c3ccccc3)[C@]3(O)C[C@H](OC(=O)[C@H](O)[C@@H](NC(=O)c4ccccc4)c4ccccc4)C(C)=C1C3(C)C)[C@]1(OC(C)=O)CO[C@@H]1C[C@@H]2O [Paclitaxel] |  |  |  |  | solubility in solvent mixture (physchem): > 50 mg/mL; solubility (physchem; Solubility in tCIMe): ~350 mg/mL (≈ 410 mM); solubility (physchem; solubility in solvent mixture): > 25 mg/mL
FC(F)(F)C(F)(F)C(F)(F)C(F)(F)C(F)(F)C(F)(F)C(F)(F)F [Perfluoroheptane] | 0 | 2 |  |  | 
FC(F)(F)C(F)(F)C(F)(F)C(F)(F)C(F)(F)C(F)(F)F [Perfluorohexane] | 0 | 1 | 359.2 torr | −6.7 | 
ClCCl [dCIMe, dichloromethane] |  |  |  |  | miscibility in pFMCP (physchem): ~10%; Miscibility in tCIMe (physchem): 100%; Log wsol (water solubility) ([2]; solvents): −0.8
FC(F)(F)C1(F)C(F)(F)C(F)(F)C(F)(F)C1(F)F [pFMCP, perfluoromethyl-cyclopentane] | 0 | 1 |  |  | Miscibility in tCIMe (physchem): ~10%
Methyl-1,1,2,2-tetrafluoroethyl ether | 2 | 0 | 842.4 torr | −1.4 | 
Perfluorodimethylcyclobutane | 0 | 1 | 579 torr | −5.7 | 
chlorotrifluoropropane [CltFPr] |  |  |  |  | miscibility in pFMCP, dClMe and tClMe (physchem): completely miscible; Miscibility in tCIMe (physchem): 100%; Log wsol (water solubility) ([2]; solvents): −2.4
dichlorodifluoroethane [dCldFEt] |  |  |  |  | miscibility in pFMCP, dClMe and tClMe (physchem): completely miscible
